Data published in patent US11407719B2, “Anti-inflammatory agents” (Resverlogix Corp., priority 2009, dated 2022).

Experiments:
hIL-6 mRNA = test: Quantification of hIL-6 mRNA; type: cell-based, human; design: key: Active: an active compound is one that causes a ≥20% inhibition in IL-6 mRNA at a concentration less than or equal to 10 μM; details: IL-6 mRNA by real-time PCR; differentiated U937 cells, 1 h pretreatment, lipopolysaccharide stimulation 3 h; concentration ≤10 μM
How it was run: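 U937 cells, differentiated for 3 days, were pretreated with compound for 1 h and then stimulated with E. coli LPS for 3 h at 37 °C. IL-6 mRNA was quantified by one-step qRT-PCR, with Ct normalized to an internal control, and fold induction was expressed relative to control.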

VCAM-1 mRNA = test: Quantification of hVCAM mRNA; type: cell-based, human; design: key: Active: an active compound is one that causes a ≥20% inhibition in VCAM-1 mRNA at a concentration less than or equal to 10 μM; -1 mRNA at a concentration less than or equal to 10 μM; details: VCAM-1 mRNA by real-time PCR; HUVECs, 1 h pretreatment, tumor necrosis factor-α stimulation 24 h; concentration ≤10 μM
How it was run: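 HUVECs were pretreated 1 h with compound, then stimulated with TNF-α and harvested 24 h later. Isolated mRNA went into one-step qRT-PCR. hVCAM Ct values were normalized to an internal control and expressed as fold induction relative to control.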

Row | Structure (SMILES) | Inhibition of IL-6 expression (hIL-6 mRNA) | melting point | Inhibition of VCAM-1 expression (VCAM-1 mRNA)
1 | COc1cc(OC)c2c(=O)[nH]c(-c3cc(C)c(OCCN4CCN(C(C)=O)CC4)c(C)c3)nc2c1 [2-(4-(2-(4-Acetylpiperazin-1-yl)ethoxy)-3,5-dimethylphenyl)-5,7-dimethoxyquinazolin-4(3H)-one] | Active | 213 to 214 °C | Active
2 | COc1cc(OC)c2c(=O)[nH]c(-c3cccc(OCCO)c3)nc2c1 [2-(3-(2-Hydroxyethoxy)phenyl)-5,7-dimethoxyquinazolin-4(3H)-one] | Active | 244.8 to 246 °C | Active
3 | Cc1cc(-c2nc3ccc(CN4CCOCC4)cc3c(=O)[nH]2)ccn1 [2-(2-methylpyridin-4-yl)-6-(morpholinomethyl)quinazolin-4(3H)-one] | Active | 267 to 268 °C | Inactive
4 | COc1cc(OCCOc2ccccc2)c2c(=O)[nH]c(-c3cc(C)nc(C)c3)nc2c1 [2-(2,6-Dimethylpyridin-4-yl)-7-methoxy-5-(2-phenoxyethoxy)quinazolin-4(3H)-one] | Active | 172.3 to 173.2 °C | Active
5 | COc1cc(OCCN2CCCC2)c2c(=O)[nH]c(-c3cc(C)nc(C)c3)nc2c1 [2-(2,6-Dimethylpyridin-4-yl)-7-methoxy-5-(2-(pyrrolidin-1-yl)ethoxy)quinazolin-4(3H)-one] | Active | 190 to 191 °C | Active
6 | COc1cc(OCCN2CCCC2)cc2nc(-c3cc(C)nc(C)c3)[nH]c(=O)c12 [2-(2,6-Dimethylpyridin-4-yl)-5-methoxy-7-(2-(pyrrolidin-1-yl)ethoxy)quinazolin-4(3H)-one] | Active | 227 to 229 °C | Inactive
